Converted amounts (≈) assume the structure as drawn. Where two headings read alike, the source gives them in different places.
What was measured:
Assay type in all cases: cell-based
[1] = tested on: Aureobasidium pullulans (ATCC 9348); assay: Microtiter plate MIC test, A. pullulans; conditions: for MIC: Aureobasidium pullulans, ATCC9348, 168 h, read-out: MIC alone
Method: (§1) Sample stock solution of Penflufen was prepared in DMSO at 20000 ppm (active ingredient).
(§2) Microorganisms grown on agar slants were harvested using standard microbiological techniques. The numbers of mold spores were determined by counted using a hemocytometer, and then inoculum was prepared in the media shown in Table 2. Then, 190 ul of inoculum was added into each well containing 10 ul of the serially diluted sample solution.

[2] = tested on: Aspergillus brasiliensis (ATCC 16404); assay: Microtiter plate minimum inhibitory concentration (MIC) test, A. brasiliensis; conditions: for MIC: Aspergillus brasiliensis, ATCC16404, 168 h, read-out: MIC alone
Method: as §1, §2

[3] = tested on: Aspergillus niger (ATCC 9642); assay: Microtiter plate MIC test, A. niger; conditions: for MIC: Aspergillus niger, ATCC9642, 168 h, read-out: MIC alone
Method: as §1, §2

[4] = tested on: Trichoderma virens (ATCC 9645); assay: Microtiter plate MIC test, T. virens; conditions: for MIC: Trichoderma virens, ATCC9645, 168 h, read-out: MIC alone
Method: as §1, §2

P. pinophilum = assay: Microtiter plate MIC test, P. pinophilum; conditions: for MIC: 168 h, read-out: MIC alone
Method: as §1, §2

Antrodia sinuosa = assay: Agar dilution MIC against decay fungus Antrodia sinuosa; conditions: for MIC: Adustoporia sinuosa, 216 h, read-out: Antrodia sinuosa MIC (ppm)
Method: (§3) Total 17 samples, including Penflufen, 8 Penflufen-potentiator blends and 8 potentiators were submitted for evaluation.
(§4) Decay fungi Antrodia sinuosa and Coniophora puteana were obtained from GTS microbiology lab fungal collection and cultured on Potato Dextrose Agar at 28° C.
(§5) The samples were diluted to test at a starting concentration of 1,000 ppm active based on the concentration of Penflufen in the samples. Samples were serially diluted into the molten Potato Dextrose Agar before the agar was solidified. The agar plugs with active fungal hyphae growth were inoculated onto the prepared agar surface.
(§6) All concentrations reported are in ppm.

Coniophora puteana = assay: Agar dilution MIC against decay fungus Coniophora puteana; conditions: for MIC: Coniophora puteana, 216 h, read-out: Coniophora puteana MIC (ppm)
Method: as §3, §4, §5, §6

[5] = substance alone, A. pullulans, 28° C., 7 days, ppm
[6] = substance alone, A. brasiliensis, 28° C., 7 days, ppm
[7] = substance alone, A. niger, 28° C., 7 days, ppm
[8] = substance alone, T. virens, 28° C., 7 days, ppm
[9] = substance alone, P. pinophilum, 28° C., 7 days, ppm
[10] = active or potentiator alone, Potato Dextrose Agar, 28° C., 9 days, complete inhibition of hyphae growth

Compound | MIC alone [1, 5] | MIC alone [2, 6] | MIC alone [3, 7] | MIC alone [4, 8] | MIC alone (P. pinophilum; [9]) | Antrodia sinuosa MIC (ppm) (Antrodia sinuosa; [10]) | Coniophora puteana MIC (ppm) (Coniophora puteana; [10]) | also measured
Cc1ccc(S(N)(=O)=O)cc1 | 5000 ppm | 5000 ppm | 5000 ppm | 5000 ppm | 5000 ppm |  |  | 
CCCCCCCCCCCCN(C)C [Barlene 12, N,N-Dimethyl-N-dodecylamine] |  |  |  |  |  |  |  | MIC [1]: 7.81 µg/mL (≈ 36.6 µM); MIC [2]: 31.2 µg/mL (≈ 146 µM); MIC (Antrodia sinuosa): 250 µg/mL; MIC [3]: 250 µg/mL (≈ 1170 µM); MIC [4]: 7.81 µg/mL (≈ 36.6 µM); MIC (P. pinophilum): 7.81 µg/mL (≈ 36.6 µM); MIC (Coniophora puteana): 500 µg/mL
CC(=O)c1c([O-])cc(C)oc1=O.CC(=O)c1c([O-])cc(C)oc1=O.[Zn+2] [DHA Zn, Dehydroacetic acid zinc salt] | 1000 ppm | 500 ppm | 500 ppm | 250 ppm | >1000 ppm | 125 ppm | 125 ppm | 
CCCCCCCC/C=C\CCCCCCCCN [Oleylamine, (Z)-Octa-9-decenylamine] | 0.31 ppm | 2.5 ppm | 1.25 ppm | 0.625 ppm | 1.25 ppm | 50.0 ppm | 50.0 ppm | 
Cc1nn(C)c(F)c1C(=O)Nc1ccccc1C(C)CC(C)C (centres unmarked) [Penflufen, N-[2-(1,3-dimethylbutyl)phenyl]-5-fluoro-1,3-dimethyl-1H-pyrazole-4-carboxamide, reference compound] |  |  |  |  |  |  |  | MIC [1, 5]: 500 µg/mL (≈ 1580 µM); MIC [2, 6]: 15.7 µg/mL (≈ 49.3 µM); MIC (Antrodia sinuosa; [10]): 62.5 µg/mL; MIC [3, 7]: 7.81 µg/mL (≈ 24.6 µM); MIC [4, 8]: > 1000 µg/mL; MIC (P. pinophilum; [9]): > 1000 µg/mL; MIC (Coniophora puteana; [10]): 125 µg/mL
O=C([O-])c1ccccc1.[Na+] [Sodium benzoate] |  |  |  |  |  | 1250 ppm | 313 ppm | 
Isononoic Acid | 625 ppm | 1250 ppm | 625 ppm | 625 ppm | 625 ppm | 313 ppm | 156 ppm | 
Tris(2-hydroxyethyl)-N-tallowalkyl-1,3-diaminopropane [Ethoduomeen] | 9.76 ppm | <4.88 ppm | <4.88 ppm | <4.88 ppm | <4.88 ppm | 625 ppm | 2500 ppm | 
cocoamine oxide [Barlox 12] | 15.62 ppm | 62.5 ppm | 15.62 ppm | 125 ppm | 62.5 ppm | 62.5 ppm | 250 ppm | 
